# Measurements from patent publication US20230312639A1, “GPER PROTEOLYTIC TARGETING CHIMERAS” (University of Iowa Research Foundation, priority 2020, published 2023).
# Columns and labels:
# ERs (ERa and ERb) = assay: Fluorescence polarization competitive binding with E2-FITC in cytosolic fractions from MCF-7 cells; parameters: species or system human
# Description: ER binding was measured using cytosolic fractions prepared from MCF-7 cells by fluorescence polarization. MCF-7 (10^6 cells) were detached in EDTA, cell homogenates were prepared using a Dounce homogenizer and subcellular fractions were isolated by differential centrifugation as previously described (Filardo et al, 2002). The protein concentration of each fraction was determined by bichinchoninic acid (BCA) assay (Pierce ™ BCA protein assay kit, Thermo Fisher). For saturation binding assay of the probe, different concentrations of cytosolic fraction were diluted in assay buffer (10 mM Tris-HCl, pH 7.4; 50 mM KCl, 10% glycerol, 0.1 mM dithiothreitol (DTT), 1 ug/mL BGG, 10 nM protease inhibitor cocktail (Roche) to a final volume of 200 uL containing 10 nM Ez-FITC. The mixture was incubated at ambient temperature for 1 hour and interaction of the probe with cytosolic protein was determined by fluorescence polarization (FP). For competitive binding assay, an aliquot of cytosolic fraction and E2-FITC (10 nM final concentration) was mixed and incubated at 4° C. for 1 hour. Then different concentrations of drugs and controls were added to the mixture. The mixture was incubated for an additional hour and then subjected to FP. All samples were measured in triplicate. Negative controls (only cytosolic fraction or only E2-FITC) and positive control (E2-FITC and cytosolic fraction at 100% binding without treatment) were included. Relative binding affinities were expressed as the percentage of FP recorded from treated wells compared to the positive control. FP values in millipolarization units (mP) were measured at ex/em wavelength of 485 nm/530 nm respectively using the Spectra Max plus 384 Microplate Spectrophotometer (Molecular Devices, Sunnyvale, CA) in 96-well, black, flat-bottom microplates (Greiner Bio-One North America, Inc., Monroe, NC). Kd values of the probe were determined by nonlinear regression fitting of the saturation curves, while IC50 values of treatment were determined by nonlinear regression fitting of the competition curves.
# In contrast to GPER, ERa and ERb are intracellular receptors that are concentrated in the cytoplasm and in the nucleus. […] A saturation analysis was performed using 10 nM E2-FITC and increasing concentrations of cytosolic protein (FIG. 25D).
# HCC1806 cells = assay: Cell viability assay, 24 hour treatment; assay type: cell-based, human; settings: HCC1806, 24 hours, mean ± SD
# Description: (§1) Cell cytotoxicity assays. […] In brief, breast cancer cells were seeded in 96 well-plates at a density of 10^4 cells/well in growth media. On the following day, the contents of the 96 well plates were aspirated and replaced by treatment at different concentrations (ranging from 10^-9 to 10^-3 M), followed by the addition of media to bring the total volume to 200 µL/well. The untreated control group was incubated with 200 µL/well of fresh media. One day later, the media were aspirated and replaced by 90 µL media + 10 µL Prestoblue reagent, followed by incubation at 37° C. for 1 h. The fluorescence was excited at 560 nm and emission was recorded at 590 nm using a Spectra Max plus 384 Microplate Spectrophotometer (Molecular Devices, Sunnyvale, CA). Relative cell viability values were expressed as the percentage of the fluorescence recorded from wells containing treated cells compared to the control wells containing untreated cells.
# (§2) Each breast cancer cell line was treated for 24 hours with various concentrations of E2-PROTAC or partial PROTAC and then cell viability was assessed using an MTS assay that measures mitochondrial oxido-reductase enzymes capable of converting a tetrazolium salt to a formazan dye (summarized in Table 2). […] These IC50 values were similar to those measured for cells treated with partial PROATAC.
# MCF-7 cells = assay: Cell viability assay, 24 hour treatment; assay type: cell-based, human; settings: MCF-7, 24 hours, mean ± SD
# Description: as §1, §2
# MDA-MB-231 cells = assay: Cell viability assay, 24 hour treatment; assay type: cell-based, human; settings: MDA-MB-231, 24 hours
# Description: as §1, §2
# SKBR3 cells = assay: Cell viability assay, 24 hour treatment; assay type: cell-based, human; settings: SKBR3, 24 hours, mean ± SD
# Description: as §1, §2
# HA-CXCR4 = HA-CXCR4 (Homo sapiens, UniProt P61073); assay: Immunofluorescence with HA antibody, stably transfected HEK293 cells; assay type: cell-based; settings: 100 µM, 1 hour
# native GPER = molecular target: T1, native GPER (Homo sapiens, UniProt Q99527); assay: Surface GPER immunostaining in human breast cancer cells (SKBR3, HCC-1806); assay type: cell-based
# T1 construct: Similar results were obtained for native GPER in her2+ and TNBC breast cancer cells; endogenous in cells; host or cells: SKBR3 and HCC-1806 human breast cancer cells
# Description: FIG. 4. PROTAC prototype Ul-EP001 reduces surface GPER. Similar results were obtained for native GPER in her2+ and TNBC breast cancer cells.
# FIG. 18. […] Structure (A) and NMR spectrum (B) of UI-EP001. Human SKBR3 (Her2+) and HCC-1806 (TNBC) breast cancer cells were exposed to vehicle (untreated) or 100 µM of partial-PROTAC or E2p-PROTAC, Ul-EP001 for 16 hours. Cells were immunostained with GPER antibodies for 30 minutes and surface GPER was detected using goat anti-rabbit Alexa 594 IgG (red). Nuclei were countertained with DAPI (blue). (C).HA-GPER or HA-β1AR cells were treated with Ul-EP001 for the indicated times and immunoblotted with HA antibody (D) or immunostained for surface receptor (E). Total corrected red fluorescence (red) (TCRF) of treated and untreated HA-GPER or HA-β1AR cells was measured by subtracting cell background. […] Data not shown, no difference in surface GPER expression is measured in cells similarly treated with free 17β-E2.
# To screen GPER-PROTACs, a GPER binding assay that measures a high-affinity (Kd= 2.7 nm), limited capacity, displaceable, single binding site specific for estrogens in plasma membranes of human SKBR3 breast cancer cells that express GPER but lack nuclear ER may be used (Thomas et al., 2005). GPER undergoes an uncommon mechanism of endocyosis that requires neither receptor phosphorylation, interaction with β--arrestin nor lysosomal activity. […]
# ERβ = ERβ (Homo sapiens, UniProt Q92731); assay: Immunostaining of endogenous receptors in MCF-7 cells; settings: MCF-7, 1 hour
# GPER = GPER (Homo sapiens, UniProt Q99527); assay: Competitive binding assay in intact SKBR3 cells with E2-FITC as fluoro-tracer (flow cytometry); parameters: endogenous in cells; host or cells: SKBR3 human breast carcinoma cells (ATCC)
# [1] = IC50 of 17β-E2 divided by IC50 of test compound
# Sequence of GPER (Q99527 whole entry): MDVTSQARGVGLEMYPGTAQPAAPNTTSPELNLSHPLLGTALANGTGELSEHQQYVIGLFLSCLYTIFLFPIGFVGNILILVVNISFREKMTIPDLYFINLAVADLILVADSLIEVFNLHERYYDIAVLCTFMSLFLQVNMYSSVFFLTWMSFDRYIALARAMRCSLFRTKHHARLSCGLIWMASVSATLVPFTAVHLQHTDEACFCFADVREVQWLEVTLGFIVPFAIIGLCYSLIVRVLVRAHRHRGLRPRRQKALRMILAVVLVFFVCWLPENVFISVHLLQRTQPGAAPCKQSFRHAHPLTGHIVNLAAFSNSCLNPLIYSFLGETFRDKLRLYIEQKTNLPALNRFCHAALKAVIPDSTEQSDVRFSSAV
# Sequence of ERβ (Q92731 whole entry): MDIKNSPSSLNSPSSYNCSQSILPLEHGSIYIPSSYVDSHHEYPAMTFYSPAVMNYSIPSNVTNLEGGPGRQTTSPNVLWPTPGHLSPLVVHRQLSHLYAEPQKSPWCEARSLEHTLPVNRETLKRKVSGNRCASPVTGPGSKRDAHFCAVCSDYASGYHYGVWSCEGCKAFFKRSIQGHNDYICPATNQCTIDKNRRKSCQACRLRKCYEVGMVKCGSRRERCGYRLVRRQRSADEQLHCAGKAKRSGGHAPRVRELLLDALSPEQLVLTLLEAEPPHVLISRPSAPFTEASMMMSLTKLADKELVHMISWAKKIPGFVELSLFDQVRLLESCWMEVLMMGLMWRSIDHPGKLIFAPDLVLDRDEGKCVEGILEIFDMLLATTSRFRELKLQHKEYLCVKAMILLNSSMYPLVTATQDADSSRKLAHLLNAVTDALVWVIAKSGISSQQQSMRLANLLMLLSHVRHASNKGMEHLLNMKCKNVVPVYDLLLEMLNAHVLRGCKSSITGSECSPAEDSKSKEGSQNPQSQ
# T1 sequence (Q99527 whole entry): as the sequence (Q99527 whole entry) above
# Sequence of HA-CXCR4 (P61073 whole entry): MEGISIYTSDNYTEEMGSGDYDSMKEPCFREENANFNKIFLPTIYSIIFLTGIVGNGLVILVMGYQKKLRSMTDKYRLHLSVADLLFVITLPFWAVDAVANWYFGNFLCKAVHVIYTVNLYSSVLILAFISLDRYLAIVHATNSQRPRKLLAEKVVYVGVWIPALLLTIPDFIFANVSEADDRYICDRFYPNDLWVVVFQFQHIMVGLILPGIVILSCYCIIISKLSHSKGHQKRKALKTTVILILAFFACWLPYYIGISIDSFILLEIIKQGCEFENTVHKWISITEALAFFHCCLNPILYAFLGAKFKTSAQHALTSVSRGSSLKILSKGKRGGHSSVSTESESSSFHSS
compound,measurement,setting,value
Cc1ncsc1-c1ccc(CNC(=O)C2CC(O)CN2C(=O)C(NC(=O)COCCOCCOCCOCC(=O)OC2CCC3C4CCc5cc(O)ccc5C4CCC23C)C(C)(C)C)cc1 (stereo not drawn) [UI-EP001],"RBA%, ERs",ERs (ERa and ERb); [1],32%
same,IC50,"ERs (ERa and ERb); MCF-7 cytosolic fraction, 10 nM E2-FITC, mean ± SD of triplicates",17.2 ± 8.2 nM
same,Kd,"ERs (ERa and ERb); MCF-7 cytosolic fractions, E2-FITC, read-out: binding dissociation constant (Kd), ER",0.0172 µM
same,IC50,HCC1806 cells,34.9 ± 1.2 µM
same,IC50,MCF-7 cells,9 ± 1.2 µM
same,IC50,MDA-MB-231 cells,> 100 µM
same,IC50,SKBR3 cells,10.9 ± 1.2 µM
same,off-target degradation of HA-CXCR4,HA-CXCR4,without detectable off-target degradation
same,expression of native GPER,native GPER,downmodulates the expression of native GPER
same,nuclear ERβ expression,ERβ,Clear site-specific reduction
same,"RBA%, GPER",GPER; [1],330%
same,Kd,"GPER; intact SKBR3 cells, E2-FITC, read-out: binding dissociation constant (Kd), GPER",~0.03 µM
